In ChEMBL document CHEMBL4043250 (Bioorg Med Chem Lett, 2017):

Tests used:
[1] = tested on: AGS; experiment: Growth inhibition of human AGS cells at 100 uM after 48 hrs by MTT assay relative to control; format: functional; conditions: read-out: GI
[2] = tested on: AGS; experiment: Anti-proliferative activity against human AGS cells after 48 hrs by MTT assay; format: functional, cell-based
[3] = tested on: L02; experiment: (§1) Anti-proliferative activity against human L02 cells after 48 hrs by MTT assay; format: ADME, cell-based; set-up: inhibition at 48 h: concentration or dose not given beside the values; conditions: Homo sapiens, L02, 48 h
[4] = Selectivity index, ratio of IC50 for human L02 cells to IC50 for human AGS cells; format: functional
[5] = as §1; format: ADME, cell-based; set-up: inhibition at 48 h: concentration or dose not given beside the values; conditions: human, L02 cells
[6] = tested on: AGS; experiment: Cell cycle arrest in human AGS cells assessed as accumulation at G1 phase at 0.1 uM after 48 hrs by propidium iodide staining based flow cytometry (reference value: 77.02%); format: functional
[7] = tested on: AGS; experiment: Cell cycle arrest in human AGS cells assessed as accumulation at G2 phase at 0.1 uM after 48 hrs by propidium iodide staining based flow cytometry (reference value: 16.41%); format: functional
[8] = tested on: AGS; experiment: Cell cycle arrest in human AGS cells assessed as accumulation at S phase at 0.1 uM after 48 hrs by propidium iodide staining based flow cytometry (reference value: 6.57%); format: functional
[9] = tested on: AGS; experiment: Cell cycle arrest in human AGS cells assessed as accumulation at G1 phase at 10 uM after 48 hrs by propidium iodide staining based flow cytometry (reference value: 77.02%); format: functional
[10] = tested on: AGS; experiment: Cell cycle arrest in human AGS cells assessed as accumulation at G2 phase at 10 uM after 48 hrs by propidium iodide staining based flow cytometry (reference value: 16.41%); format: functional
[11] = tested on: AGS; experiment: Cell cycle arrest in human AGS cells assessed as accumulation at S phase at 10 uM after 48 hrs by propidium iodide staining based flow cytometry (reference value: 6.57%); format: functional
[12] = tested on: AGS; experiment: Induction of apoptosis in human AGS cells assessed as viable cells at 0.1 uM after 48 hrs by Annexin-V-FITC/propidium iodide staining based flow cytometry (reference value: 97.5%); format: functional; conditions: read-out: Activity
[13] = tested on: AGS; experiment: Induction of apoptosis in human AGS cells assessed as early apoptotic cells at 0.1 uM after 48 hrs by Annexin-V-FITC/propidium iodide staining based flow cytometry (reference value: 0.2%); format: functional
[14] = tested on: AGS; experiment: Induction of apoptosis in human AGS cells assessed as late apoptotic cells at 0.1 uM after 48 hrs by Annexin-V-FITC/propidium iodide staining based flow cytometry (reference value: 0.3%); format: functional
[15] = tested on: AGS; experiment: Induction of apoptosis in human AGS cells assessed as necrotic cells at 0.1 uM after 48 hrs by Annexin-V-FITC/propidium iodide staining based flow cytometry (reference value: 2%); format: functional
[16] = tested on: AGS; experiment: Induction of apoptosis in human AGS cells assessed as viable cells at 10 uM after 48 hrs by Annexin-V-FITC/propidium iodide staining based flow cytometry (reference value: 97.5%); format: functional; conditions: read-out: Activity
[17] = tested on: AGS; experiment: Induction of apoptosis in human AGS cells assessed as early apoptotic cells at 10 uM after 48 hrs by Annexin-V-FITC/propidium iodide staining based flow cytometry (reference value: 0.2%); format: functional
[18] = tested on: AGS; experiment: Induction of apoptosis in human AGS cells assessed as late apoptotic cells at 10 uM after 48 hrs by Annexin-V-FITC/propidium iodide staining based flow cytometry (reference value: 0.3%); format: functional
[19] = tested on: AGS; experiment: Induction of apoptosis in human AGS cells assessed as necrotic cells at 10 uM after 48 hrs by Annexin-V-FITC/propidium iodide staining based flow cytometry (reference value: 2%); format: functional

Compound | inhibition of growth at 100 µM [1] | IC50 [2] | IC50 [3] | Ratio IC50 [4] | also measured
O=c1ccc2cc3ccoc3c(OCc3cn(-c4ccc(Cl)cc4)nn3)c2o1 | 89.6% | 8.2 µM | > 100 µM | >12.2 | 
O=c1ccc2cc3ccoc3c(OCc3cn(-c4ccccc4F)nn3)c2o1 | 39.6% |  |  |  | 
O=c1ccc2cc3ccoc3c(OCc3nncn3-c3ccc(F)cc3)c2o1 | 72.3% | 13.1 µM | 94.2 µM | 7.2 | inhibition at 48 h [5]: 53.1%
O=c1ccc2cc3ccoc3c(OCc3cn(Cc4ccccc4Cl)nn3)c2o1 | 33.2% |  |  |  | 
Cc1ccc(-n2cc(COc3c4occc4cc4ccc(=O)oc34)nn2)cc1 | 65.6% | 33.2 µM | > 100 µM | >3 | 
Cc1ccc(Cn2cc(COc3c4occc4cc4ccc(=O)oc34)nn2)cc1 | 47% |  |  |  | 
COc1ccc(-n2cnnc2COc2c3occc3cc3ccc(=O)oc23)cc1 | 34.4% |  |  |  | 
O=c1ccc2cc3ccoc3c(OCc3nncn3-c3ccc(Cl)cc3)c2o1 | 40.3% |  |  |  | 
O=c1ccc2cc3ccoc3c(OCc3nncn3-c3ccccc3)c2o1 | 40.1% |  |  |  | 
O=c1ccc2cc3ccoc3c(OCc3cn(-c4ccc(F)cc4)nn3)c2o1 | 70.4% | 10.7 µM | > 100 µM | >9.3 | 
Cc1ccc(-n2cnnc2COc2c3occc3cc3ccc(=O)oc23)cc1 | 39.4% |  |  |  | 
O=c1ccc2cc3ccoc3c(OCc3cn(Cc4ccc(Cl)cc4Cl)nn3)c2o1 | 67.7% | 26.5 µM | 90.2 µM | 3.4 | 
O=c1ccc2cc3ccoc3c(OCc3cn(Cc4ccccc4F)nn3)c2o1 | 25.5% |  |  |  | 
O=c1ccc2cc3ccoc3c(OCc3nncn3-c3ccc(C(F)(F)F)cc3)c2o1 | 52.9% | 41 µM | > 100 µM | >2.4 | 
O=c1ccc2cc3ccoc3c(OCc3cn(Cc4cccc(C(F)(F)F)c4)nn3)c2o1 | 51.7% | > 100 µM | > 100 µM |  | 
O=c1ccc2cc3ccoc3c(OCc3cn(Cc4ccc(F)cc4)nn3)c2o1 | 43.1% |  |  |  | 
O=c1ccc2cc3ccoc3c(OCc3cn(Cc4cccc(Cl)c4)nn3)c2o1 | 49.5% |  |  |  | 
O=c1ccc2cc3ccoc3c(OCc3nncn3-c3ccccc3Cl)c2o1 | 45.2% |  |  |  | 
O=c1ccc2cc3ccoc3c(OCc3cn(-c4ccc(C(F)(F)F)cc4)nn3)c2o1 | 92.4% | 7.5 µM | > 100 µM | >13.3 | inhibition at 48 h [5]: 33.9%; Activity [6]: 61.1%; Activity [7]: 31.73%; Activity [8]: 7.17%; Activity [9]: 49.76%; Activity [10]: 38.17%; Activity [11]: 12.08%; viability at 0.1 µM [12]: 96.2%; Activity [13]: 0.3%; Activity [14]: 0.8%; Activity [15]: 1.8%; viability at 10 µM [16]: 96.4%; Activity [17]: 0.9%; Activity [18]: 1%; Activity [19]: 1.7%
Cc1nncn1-c1ccc(F)cc1 | 13.9% | > 100 µM | > 100 µM |  | inhibition at 48 h [5]: 16.9%
O=c1ccc2cc3ccoc3c(OCc3cn(-c4ccccc4)nn3)c2o1 | 46.4% |  |  |  | 
COc1ccc(-n2cc(COc3c4occc4cc4ccc(=O)oc34)nn2)cc1 | 53.2% | 94.6 µM | > 100 µM | >1.1 | 
O=c1ccc2cc3ccoc3c(OCc3cn(Cc4ccccc4)nn3)c2o1 | 24.4% |  |  |  | 
O=c1ccc2cc3ccoc3c(OCc3cn(Cc4c(Cl)cccc4Cl)nn3)c2o1 | 32.5% |  |  |  | 
O=c1ccc2cc3ccoc3c(OCc3cn(Cc4cccc(F)c4)nn3)c2o1 | 30.1% |  |  |  | 
O=c1ccc2cc3ccoc3c(OCc3cn(Cc4ccc(Cl)cc4)nn3)c2o1 | 53.2% | 93.2 µM | > 100 µM | >1.1 | 
Cc1cn(-c2ccc(C(F)(F)F)cc2)nn1 | 44.5% | > 100 µM | > 100 µM |  | inhibition at 48 h [5]: 9.4%
O=c1[nH]cc(F)c(=O)[nH]1 [FLUOROURACIL] | 74.9% | 29.6 µM |  |  | 
COc1c2occc2cc2ccc(=O)oc12 [METHOXSALEN] | 35.3% | > 100 µM | > 100 µM |  | inhibition at 48 h [5]: 3.3%
